In general, EC50 refers to the concentration at which the effect is half-maximal. Read a low EC50 as a more potent agent.

The results in this text go back to US10246483B2, “Bile acid analogs as FXR/TGR5 agonists and methods of use thereof” (ENANTA PHARMACEUTICALS, INC., priority 2015, dated 2019).

The experiment has as its target T1, human FXR (NR1H4) (Homo sapiens, UniProt Q96RI1).
T1 construct: host or cells: CHO (Chinese hamster ovary) reporter cells
T1 sequence (Q96RI1 1-486): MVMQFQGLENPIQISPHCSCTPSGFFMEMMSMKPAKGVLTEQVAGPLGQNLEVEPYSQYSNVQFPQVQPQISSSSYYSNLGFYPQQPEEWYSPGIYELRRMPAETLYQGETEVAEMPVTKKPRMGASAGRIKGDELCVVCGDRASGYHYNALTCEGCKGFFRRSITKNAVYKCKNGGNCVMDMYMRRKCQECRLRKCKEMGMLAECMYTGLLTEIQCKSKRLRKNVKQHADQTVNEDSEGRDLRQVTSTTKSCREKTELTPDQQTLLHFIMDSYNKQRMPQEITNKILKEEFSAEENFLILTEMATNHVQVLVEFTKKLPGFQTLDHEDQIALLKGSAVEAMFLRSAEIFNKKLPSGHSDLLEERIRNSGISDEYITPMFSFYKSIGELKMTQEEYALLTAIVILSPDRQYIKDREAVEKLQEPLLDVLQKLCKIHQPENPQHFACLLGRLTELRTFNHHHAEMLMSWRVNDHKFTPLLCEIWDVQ
Put plainly: Human FXR (NR1H4) reporter assay (Gal4 promoter driven transactivation, luciferase). The class given is cell-based. An excerpt: Human FXR (NR1H4) Assay Determination of a ligand mediated Gal4 promoter driven transactivation to quantify ligand binding mediated activation of FXR. FXR Reporter Assay kit purchased from Indigo Bioscience (Catalogue number: IB00601) to determine the potency and efficacy of compound developed by Enanta that can induce FXR activation. The principle application of this reporter assay system is to quantify functional activity of human FXR. The assay utilizes non-human mammalian cells, CHO (Chinese hamster ovary) cells engineered to express human NR1H4 protein (referred to as FXR). Reporter cells also incorporate the cDNA encoding beetle luciferase which catalyzes the substrates and yields photon emission. Luminescence intensity of the reaction is quantified using a plate-reading luminometer, Envision. […] Thus, quantifying changes in luciferase expression in the treated reporter cells provides a sensitive surrogate measure of the changes in FXR activity. […] Thirty minutes before intending to quantify FXR activity, remove Detection Substrate and Detection Buffer from the refrigerator and place them in a low-light area so that they may equilibrate to room temperature. […] Set the instrument (Envision) to perform a single 5 second “plate shake” prior to reading the first assay well. Read time may be 0.5 second (500 mSec) per well.

`CC[C@@H]1C2C[C@H](O)CCC2(C)[C@H]2CCC3(C)C([C@H](C)CCC(=O)NC(=N)Nc4ccccc4)CC[C@H]3[C@@H]2[C@@H]1O` (some centres unmarked) [Example 1]: the EC50 lay within 100 to 1000 nM. In addition, under “CHO reporter cells expressing human NR1H4, normalized to CDCA set as 100%”, the “Efficacy (%)” value was found to be 248%.
